# Test results: paper PMC4186434, “Antagonism of human CC-chemokine receptor 4 can be achieved through three distinct binding sites on the receptor” (Pharmacology Research & Perspectives, 2013)
# Biological target: T1, human CC-chemokine receptor 4 (CCR4); CHO-CCR4 membranes (Homo sapiens, UniProt P51679)
# T1 construct: membranes
# T1 sequence (P51679 1-360): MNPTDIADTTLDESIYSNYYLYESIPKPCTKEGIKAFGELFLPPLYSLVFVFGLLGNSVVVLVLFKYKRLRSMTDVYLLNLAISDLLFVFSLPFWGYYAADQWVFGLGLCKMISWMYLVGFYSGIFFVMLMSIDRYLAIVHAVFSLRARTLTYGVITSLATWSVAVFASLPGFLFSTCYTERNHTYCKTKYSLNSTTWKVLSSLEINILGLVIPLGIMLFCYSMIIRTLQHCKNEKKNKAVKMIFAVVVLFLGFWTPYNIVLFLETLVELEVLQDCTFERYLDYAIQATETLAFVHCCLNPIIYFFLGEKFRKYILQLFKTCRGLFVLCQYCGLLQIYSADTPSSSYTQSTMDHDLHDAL
# Assay: […]CCL17 displacement, scintillation proximity assay, CHO-CCR4 membranes
# Format: binding
# Settings: read-out: [^125I]CCL17 / pKi (converted)
row,Ki,Compound
1,2.75 nM,O=C([C@H]1CCCCN1)N1CCN(c2nccc(NCc3ccc(Cl)cc3Cl)n2)CC1 [compound 4]
2,2 nM,COc1cc2nc(N3CCC(N(C)C(=O)[C@H]4CCCN4)CC3)nc(Nc3ccc(Cl)cc3F)c2cc1OC [compound 6]
3,29.5 nM,COc1nc(Br)cnc1NS(=O)(=O)c1ccc(Cl)s1 [compound 7]

# The next lines start with the molecule.
row,Compound,Ki
1,c1ccc2c(Nc3nc(CN(CC4CCCCC4)CC4CCCCC4)cs3)cccc2c1 [compound 1],457 nM
2,COc1cccc2c1c(NS(=O)(=O)c1ccc(Cl)s1)nn2Cc1cccc(CNC(=O)OC(C)(C)C)c1 [compound 2],18.2 nM
3,COc1cccc2c1c(NS(=O)(=O)c1ccc(Cl)s1)nn2Cc1cccc(CNC(=O)C(C)(C)O)c1 [compound 3],6.17 nM
